# Laboratory results from PMC5218480 (PLoS ONE, 2017).
# System: MV-4-11 cells
# Assay: Gene expression microarray analysis (Affymetrix PrimeView) and GSEA
# Type: cell-based, human
# Set-up: RFU PODN (11730768_x_at) / Fold change /veh PODN (11730768_x_at) / RFU LINC00158 (11744669_a_at) / Fold change /veh LINC00158 (11744669_a_at) / RFU DUSP10 (11751237_a_at) / Fold change /veh DUSP10 (11751237_a_at) / RFU ID3 (11757404_x_at) / Fold change /veh ID3 (11757404_x_at) / RFU PLEKHG5 (11737974_s_at) / Fold change /veh PLEKHG5 (11737974_s_at) / RFU LRRC4B (11730491_at) / Fold change /veh LRRC4B (11730491_at) / RFU GIMAP4 (11747438_a_at) / Fold change /veh GIMAP4 (11747438_a_at) / RFU KRT8 (11758183_x_at) / Fold change /veh KRT8 (11758183_x_at) / RFU CNN1 (11734310_a_at) / Fold change /veh CNN1 (11734310_a_at) / RFU VPS37D (11726825_at) / Fold change /veh VPS37D (11726825_at) / RFU C10orf10 (11716522_x_at) / Fold change /veh C10orf10 (11716522_x_at) / RFU KIR2DL2 /// KIR2DL4 /// KIR2DL5A /// KIR2DL5B /// KIR2DS1 /// KIR2DS2 /// KIR2DS3 /// KIR2DS4 /// KIR3DL3 /// KIR3DL3 /// KIR3DS1 (11738374_at) / Fold change /veh KIR2DL2 /// KIR2DL4 /// KIR2DL5A /// KIR2DL5B /// KIR2DS1 /// KIR2DS2 /// KIR2DS3 /// KIR2DS4 /// KIR3DL3 /// KIR3DL3 /// KIR3DS1 (11738374_at) / RFU C1QL1 (11718748_at) / Fold change /veh C1QL1 (11718748_at) / RFU TMPRSS4 (11747572_a_at) / Fold change /veh TMPRSS4 (11747572_a_at) / RFU HAMP (11756126_x_at) / Fold change /veh HAMP (11756126_x_at) / RFU RNFT2 (11725882_a_at) / Fold change /veh RNFT2 (11725882_a_at) / RFU NR4A2 (11747474_a_at) / Fold change /veh NR4A2 (11747474_a_at) / RFU ABCC12 (11746883_a_at) / Fold change /veh ABCC12 (11746883_a_at) / RFU TMEM136 (11760407_x_at) / Fold change /veh TMEM136 (11760407_x_at) / RFU CLDN22 /// WWC2 (11732394_at) / Fold change /veh CLDN22 /// WWC2 (11732394_at) / RFU HLA-DPB1 (11760878_x_at) / Fold change /veh HLA-DPB1 (11760878_x_at) / RFU SPINT1 (11716480_a_at) / Fold change /veh SPINT1 (11716480_a_at) / RFU GAP43 (11754022_s_at) / Fold change /veh GAP43 (11754022_s_at) / RFU A4GNT (11735810_at) / Fold change /veh A4GNT (11735810_at) / RFU PRB3 (11715151_x_at) / Fold change /veh PRB3 (11715151_x_at) / RFU TUBB4B (11761932_at) / Fold change /veh TUBB4B (11761932_at) / RFU CAPN14 (11732068_a_at) / Fold change /veh CAPN14 (11732068_a_at) / RFU TMCC2 (11721928_a_at) / Fold change /veh TMCC2 (11721928_a_at) / RFU IRGQ (11745062_a_at) / Fold change /veh IRGQ (11745062_a_at) / RFU FAM174B (11720279_a_at) / Fold change /veh FAM174B (11720279_a_at) / RFU TMPRSS4 (11748680_a_at) / Fold change /veh TMPRSS4 (11748680_a_at) / RFU FAM212B (11763350_a_at) / Fold change /veh FAM212B (11763350_a_at) / RFU PLEKHG5 (11743358_a_at) / Fold change /veh PLEKHG5 (11743358_a_at) / RFU ZSCAN30 (11745921_a_at) / Fold change /veh ZSCAN30 (11745921_a_at) / RFU CMKLR1 (11741424_a_at) / Fold change /veh CMKLR1 (11741424_a_at) / RFU LOC101060620 /// MAPK8IP1 (11723275_at) / Fold change /veh LOC101060620 /// MAPK8IP1 (11723275_at) / RFU SPTSSB (11747773_x_at) / Fold change /veh SPTSSB (11747773_x_at) / RFU PRSS12 (11739890_at) / Fold change /veh PRSS12 (11739890_at) / RFU BIN1 (11741810_x_at) / Fold change /veh BIN1 (11741810_x_at) / RFU WNT11 (11732464_a_at) / Fold change /veh WNT11 (11732464_a_at) / RFU C10orf10 (11716521_a_at) / Fold change /veh C10orf10 (11716521_a_at) / RFU C5orf56 (11738089_at) / Fold change /veh C5orf56 (11738089_at) / RFU CYB561 (11721691_x_at) / Fold change /veh CYB561 (11721691_x_at) / RFU ANKRD19P (11752326_a_at) / Fold change /veh ANKRD19P (11752326_a_at) / RFU OR2T12 /// OR2T33 /// OR2T8 (11738714_s_at) / Fold change /veh OR2T12 /// OR2T33 /// OR2T8 (11738714_s_at) / RFU VCAN (11748164_a_at) / Fold change /veh VCAN (11748164_a_at) / RFU JSRP1 (11732532_at) / Fold change /veh JSRP1 (11732532_at) / RFU KRTAP10-11 (11738290_x_at) / Fold change /veh KRTAP10-11 (11738290_x_at) / RFU MYO3A (11730013_a_at) / Fold change /veh MYO3A (11730013_a_at) / RFU EBF3 (11725865_a_at) / Fold change /veh EBF3 (11725865_a_at) / RFU CAMK2N1 (11719241_x_at) / Fold change /veh CAMK2N1 (11719241_x_at) / RFU C5orf56 (11738088_a_at) / Fold change /veh C5orf56 (11738088_a_at) / RFU OLFML3 (11715873_a_at) / Fold change /veh OLFML3 (11715873_a_at) / RFU LOC100653217 /// NTM (11731650_a_at) / Fold change /veh LOC100653217 /// NTM (11731650_a_at) / RFU MAPK11 (11762145_a_at) / Fold change /veh MAPK11 (11762145_a_at) / RFU FIZ1 (11724087_x_at) / Fold change /veh FIZ1 (11724087_x_at) / RFU OASL (11726364_x_at) / Fold change /veh OASL (11726364_x_at) / RFU SOX15 (11748057_x_at) / Fold change /veh SOX15 (11748057_x_at) / RFU CD79A (11719716_a_at) / Fold change /veh CD79A (11719716_a_at) / RFU HIST1H1D (11736915_at) / Fold change /veh HIST1H1D (11736915_at) / RFU CASKIN2 (11723855_a_at) / Fold change /veh CASKIN2 (11723855_a_at) / RFU LOC730098 (11760151_x_at) / Fold change /veh LOC730098 (11760151_x_at) / RFU OR4N2 (11742367_at) / Fold change /veh OR4N2 (11742367_at) / RFU PRRT2 (11749266_a_at) / Fold change /veh PRRT2 (11749266_a_at) / RFU SNX32 (11753110_a_at) / Fold change /veh SNX32 (11753110_a_at) / RFU CDHR5 (11726645_a_at) / Fold change /veh CDHR5 (11726645_a_at) / RFU RCAN1 (11760418_a_at) / Fold change /veh RCAN1 (11760418_a_at) / RFU FAM167A (11723789_a_at) / Fold change /veh FAM167A (11723789_a_at) / RFU FAM26E (11764081_at) / Fold change /veh FAM26E (11764081_at) / RFU ISYNA1 (11749810_s_at) / Fold change /veh ISYNA1 (11749810_s_at) / RFU ACY1 (11761880_at) / Fold change /veh ACY1 (11761880_at) / RFU 11764098_at / Fold change /veh 11764098_at / RFU SAMD14 (11745864_x_at) / Fold change /veh SAMD14 (11745864_x_at) / RFU NPB (11741838_a_at) / Fold change /veh NPB (11741838_a_at) / RFU TMPRSS6 (11731388_a_at) / Fold change /veh TMPRSS6 (11731388_a_at) / RFU KRTAP10-2 (11738614_at) / Fold change /veh KRTAP10-2 (11738614_at) / RFU ARHGAP8 /// PRR5-ARHGAP8 (11727945_x_at) / Fold change /veh ARHGAP8 /// PRR5-ARHGAP8 (11727945_x_at) / RFU KRTAP5-7 /// NADSYN1 (11734609_at) / Fold change /veh KRTAP5-7 /// NADSYN1 (11734609_at) / RFU RASL12 (11751679_a_at) / Fold change /veh RASL12 (11751679_a_at) / RFU CDKN2B (11736163_a_at) / Fold change /veh CDKN2B (11736163_a_at) / RFU PRF1 (11729649_at) / Fold change /veh PRF1 (11729649_at) / RFU, ZNF638 /// ZNF638-IT1 / Fold change vs veh, ZNF638 /// ZNF638-IT1 / RFU, PANK3 / Fold change vs veh, PANK3 / RFU, SH3YL1 / Fold change vs veh, SH3YL1 / RFU, ZEB2 / Fold change vs veh, ZEB2 / RFU, NRIP1 / Fold change vs veh, NRIP1 / RFU, PTTG1IP / Fold change vs veh, PTTG1IP / RFU, CAPN2 / Fold change vs veh, CAPN2 / RFU, MED14 / Fold change vs veh, MED14 / RFU, SNORA58 / Fold change vs veh, SNORA58 / RFU, C1orf63 / Fold change vs veh, C1orf63 / RFU, LRRFIP1 / Fold change vs veh, LRRFIP1 / RFU, NDUFAF7 / Fold change vs veh, NDUFAF7 / RFU, SLC12A2 / Fold change vs veh, SLC12A2 / RFU, IBTK / Fold change vs veh, IBTK / RFU, ESF1 / Fold change vs veh, ESF1 / Fold change vs veh, TMEM50B / RFU, TAOK1 / Fold change vs veh, TAOK1 / RFU, ACBD3 / Fold change vs veh, ACBD3 / RFU, TMA16 / Fold change vs veh, TMA16 / RFU, RWDD3 / Fold change vs veh, RWDD3 / RFU, BCAT1 / Fold change vs veh, BCAT1 / RFU, EDEM3 / Fold change vs veh, EDEM3 / RFU, TMEM33 / Fold change vs veh, TMEM33 / RFU, WDR75 / Fold change vs veh, WDR75 / RFU, AHCTF1 / Fold change vs veh, AHCTF1 / RFU, TFRC / Fold change vs veh, TFRC / RFU, ZDHHC17 / Fold change vs veh, ZDHHC17 / RFU, NOM1 / Fold change vs veh, NOM1 / RFU, ARL8B / Fold change vs veh, ARL8B / RFU, ZBTB11 / Fold change vs veh, ZBTB11 / RFU, TAMM41 / Fold change vs veh, TAMM41 / RFU, KIAA1704 /// LOC100996395 / Fold change vs veh, KIAA1704 /// LOC100996395 / RFU, ING1 / Fold change vs veh, ING1 / RFU, TRMT61B / Fold change vs veh, TRMT61B / RFU, FUBP3 / Fold change vs veh, FUBP3 / RFU, TP53 / Fold change vs veh, TP53 / RFU, TNKS2 / Fold change vs veh, TNKS2 / RFU, ZFP14 / Fold change vs veh, ZFP14 / RFU, ACTR2 / Fold change vs veh, ACTR2 / RFU, PPP3R1 / Fold change vs veh, PPP3R1 / RFU, PIK3R1 / Fold change vs veh, PIK3R1 / RFU, HNRNPA1 / Fold change vs veh, HNRNPA1 / RFU, RNF170 / Fold change vs veh, RNF170 / RFU, ZNF28 / Fold change vs veh, ZNF28 / RFU, RNGTT / Fold change vs veh, RNGTT / RFU, OGT / Fold change vs veh, OGT / RFU, BRD1 / Fold change vs veh, BRD1 / RFU, MARS / Fold change vs veh, MARS / RFU, ZNF655 / Fold change vs veh, ZNF655 / RFU, FAHD1 / Fold change vs veh, FAHD1 / RFU, BDP1 / Fold change vs veh, BDP1 / RFU, LRRCC1 / Fold change vs veh, LRRCC1 / RFU, ARID1A / Fold change vs veh, ARID1A / RFU, ZNF146 / Fold change vs veh, ZNF146 / RFU, ZNF330 / Fold change vs veh, ZNF330 / RFU, GPN3 / Fold change vs veh, GPN3 / RFU, C9orf123 / Fold change vs veh, C9orf123 / RFU, N4BP2L2 / Fold change vs veh, N4BP2L2 / RFU, ARFIP1 / Fold change vs veh, ARFIP1 / RFU, FAM179B / Fold change vs veh, FAM179B / RFU, BCL10 / Fold change vs veh, BCL10 / RFU, UHRF1BP1L / Fold change vs veh, UHRF1BP1L / RFU, BET1 / Fold change vs veh, BET1 / RFU, CNOT2 / Fold change vs veh, CNOT2 / RFU, ZNF268 / Fold change vs veh, ZNF268 / Fold change vs veh, ZNF507 / RFU, DGCR2 / Fold change vs veh, DGCR2 / RFU, WDSUB1 / Fold change vs veh, WDSUB1 / Fold change vs veh, HSP90B1 /// MIR3652 / RFU, ADSS / Fold change vs veh, ADSS / RFU, GK / Fold change vs veh, GK / RFU, ZNF148 / Fold change vs veh, ZNF148 / RFU, TAF9 / Fold change vs veh, TAF9 / RFU, SLC1A5 / Fold change vs veh, SLC1A5 / RFU, SLMO2 / Fold change vs veh, SLMO2 / RFU, ABCC4 / Fold change vs veh, ABCC4 / RFU, LOC101060439 /// RAP1B / Fold change vs veh, LOC101060439 /// RAP1B / RFU, RFX7 / Fold change vs veh, RFX7 / RFU, GTPBP10 / Fold change vs veh, GTPBP10 / RFU, CNEP1R1 / Fold change vs veh, CNEP1R1 / RFU, BIVM-ERCC5 /// ERCC5 / Fold change vs veh, BIVM-ERCC5 /// ERCC5 / RFU, ILF3 / Fold change vs veh, ILF3 / RFU 11762660_at / Fold change /veh 11762660_at / RFU VCAN (11757783_s_at) / Fold change /veh VCAN (11757783_s_at) / RFU DDX43 (11728927_at) / Fold change /veh DDX43 (11728927_at) / RFU KRT8 (11758188_x_at) / Fold change /veh KRT8 (11758188_x_at) / RFU NKD1 (11759106_at) / Fold change /veh NKD1 (11759106_at) / RFU SRD5A1 (11742802_a_at) / Fold change /veh SRD5A1 (11742802_a_at) / RFU TPSAB1 /// TPSB2 (11721975_s_at) / Fold change /veh TPSAB1 /// TPSB2 (11721975_s_at) / RFU GSTM3 (11746129_a_at) / Fold change /veh GSTM3 (11746129_a_at) / RFU IL23R (11737362_x_at) / Fold change /veh IL23R (11737362_x_at) / RFU TMEM51 (11727254_a_at) / Fold change /veh TMEM51 (11727254_a_at) / RFU PIWIL2 (11732686_x_at) / Fold change /veh PIWIL2 (11732686_x_at) / RFU ORM1 (11744905_x_at) / Fold change /veh ORM1 (11744905_x_at) / RFU CCDC152 (11743942_at) / Fold change /veh CCDC152 (11743942_at) / RFU ECM1 (11717891_a_at) / Fold change /veh ECM1 (11717891_a_at) / RFU IL23R (11748794_a_at) / Fold change /veh IL23R (11748794_a_at) / RFU TNFAIP8L3 (11732012_x_at) / Fold change /veh TNFAIP8L3 (11732012_x_at) / RFU MBOAT4 (11741988_at) / Fold change /veh MBOAT4 (11741988_at) / RFU 11764193_at / Fold change /veh 11764193_at / RFU TMEM53 (11763286_at) / Fold change /veh TMEM53 (11763286_at) / RFU MAGEB2 (11727129_at) / Fold change /veh MAGEB2 (11727129_at) / RFU TMEM200A (11744735_a_at) / Fold change /veh TMEM200A (11744735_a_at) / RFU CCDC152 (11751479_a_at) / Fold change /veh CCDC152 (11751479_a_at) / RFU FAM211A (11726209_a_at) / Fold change /veh FAM211A (11726209_a_at) / RFU RGS16 (11746705_a_at) / Fold change /veh RGS16 (11746705_a_at) / RFU VCAN (11755009_s_at) / Fold change /veh VCAN (11755009_s_at) / RFU RHOB (11743442_s_at) / Fold change /veh RHOB (11743442_s_at) / RFU RGS16 (11720943_a_at) / Fold change /veh RGS16 (11720943_a_at) / RFU RGS16 (11720944_at) / Fold change /veh RGS16 (11720944_at) / RFU, VPS4B / Fold change vs veh, VPS4B / RFU, CREB1 / Fold change vs veh, CREB1 / RFU, DNAJC13 / Fold change vs veh, DNAJC13 / RFU, GNAQ / Fold change vs veh, GNAQ / RFU, CDK5R1 / Fold change vs veh, CDK5R1 / RFU, ZRANB3 / Fold change vs veh, ZRANB3 / RFU, CUL4A / Fold change vs veh, CUL4A / RFU, CCNY / Fold change vs veh, CCNY / RFU, UFL1 / Fold change vs veh, UFL1 / RFU, COG3 / Fold change vs veh, COG3 / RFU, DIAPH2 / Fold change vs veh, DIAPH2 / RFU, SKA2 / Fold change vs veh, SKA2 / RFU, AFF3 / Fold change vs veh, AFF3 / RFU, LMF1 / Fold change vs veh, LMF1 / RFU, IPO11 / Fold change vs veh, IPO11 / RFU, DFFB / Fold change vs veh, DFFB / RFU, FOXP1 / Fold change vs veh, FOXP1 / RFU, CARD8 / Fold change vs veh, CARD8 / RFU, STRN3 / Fold change vs veh, STRN3 / RFU, ADK / Fold change vs veh, ADK / RFU, RASSF2 / Fold change vs veh, RASSF2 / RFU, WIPF1 / Fold change vs veh, WIPF1 / RFU, LARP1B / Fold change vs veh, LARP1B / RFU, RASA1 / Fold change vs veh, RASA1 / RFU, RB1 / Fold change vs veh, RB1 / RFU, PPFIA1 / Fold change vs veh, PPFIA1 / RFU, MAT2A / Fold change vs veh, MAT2A / RFU, CCT5 / Fold change vs veh, CCT5 / RFU, WDR92 / Fold change vs veh, WDR92 / RFU, CUX1 / Fold change vs veh, CUX1 / RFU, TTC7A / Fold change vs veh, TTC7A / RFU, TMEM135 / Fold change vs veh, TMEM135 / RFU, DEPTOR / Fold change vs veh, DEPTOR / RFU, CPM / Fold change vs veh, CPM / RFU, DNAJB6 / Fold change vs veh, DNAJB6 / RFU, CACNA2D3 / Fold change vs veh, CACNA2D3 / RFU, DTX4 / Fold change vs veh, DTX4 / RFU, TFCP2 / Fold change vs veh, TFCP2 / RFU, GMCL1 /// GMCL1P1 / Fold change vs veh, GMCL1 /// GMCL1P1 / RFU, AEBP2 / Fold change vs veh, AEBP2 / RFU, SNHG1 /// SNORD22 /// SNORD25 /// SNORD26 /// SNORD27 /// SNORD28 /// SNORD29 /// SNORD31 / Fold change vs veh, SNHG1 /// SNORD22 /// SNORD25 /// SNORD26 /// SNORD27 /// SNORD28 /// SNORD29 /// SNORD31 / Fold change (Aza/veh), C12orf56 (ProbeSet 11735607_a_at) / Fold change (ACY-1035/veh), C12orf56 (ProbeSet 11735607_a_at) / Fold change (Aza/veh), FGFR1OP (ProbeSet 11751329_s_at) / Fold change (ACY-1035/veh), FGFR1OP (ProbeSet 11751329_s_at) / Fold change (Aza/veh), VPS36 (ProbeSet 11739960_a_at) / Fold change (ACY-1035/veh), VPS36 (ProbeSet 11739960_a_at) / RFU SYPL1 (11715823_x_at) / Fold change /veh SYPL1 (11715823_x_at) / RFU IGFBP7 (11715501_s_at) / Fold change /veh IGFBP7 (11715501_s_at) / RFU REEP3 (11722064_at) / Fold change /veh REEP3 (11722064_at) / RFU IGLL1 (11728026_x_at) / Fold change /veh IGLL1 (11728026_x_at): dose or concentration left out as unconfirmed
# Details: ProbeSet 11744854_x_at; LIST B
compound,measurement,value
Nc1ncn([C@@H]2O[C@H](CO)[C@@H](O)[C@H]2O)c(=O)n1 [azacitidine],"RFU, ZNF28",60.82 RFU
